# Results published in the supplement of paper PMC10307832.
# Columns and labels:
# Test in all cases: relative viability (nuclei count vs DMSO), 5 days (fraction); higher = more cells survive
# Zebularine + Lapatinib = compound: O=c1ncccn1[C@@H]1O[C@H](CO)[C@@H](O)[C@H]1O [Zebularine] + CS(=O)(=O)CCNCc1ccc(-c2ccc3ncnc(Nc4ccc(OCc5cccc(F)c5)c(Cl)c4)c3c2)o1 [Lapatinib] (partner 2 µM)
# Summary of the method: (§1)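 Dosing by pin tool came one day after lung cancer cell lines were seeded in 1536-well plates, using either one drug or a fixed anchor-drug dose plus five library-drug doses (not always all listed) in √10 steps. After 5 days, nuclei were counted on 4× images. Relative viability is treated-well nuclei count divided by vehicle-well nuclei count, and values are medians of duplicate plates.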
# BI-D1870 + Phenformin = compound: CC(C)CCN1c2nc(Nc3cc(F)c(O)c(F)c3)ncc2N(C)C(=O)C1C [BI-D1870] + N=C(N)NC(=N)NCCc1ccccc1 [Phenformin] (partner 250 µM)
# Summary of the method: as §1
# BI-D1870 + Vorinostat = compound: CC(C)CCN1c2nc(Nc3cc(F)c(O)c(F)c3)ncc2N(C)C(=O)C1C [BI-D1870] + O=C(CCCCCCC(=O)Nc1ccccc1)NO [Vorinostat] (partner 1 µM)
# Summary of the method: as §1
# Zebularine + Vorinostat = compound: O=c1ncccn1[C@@H]1O[C@H](CO)[C@@H](O)[C@H]1O [Zebularine] + O=C(CCCCCCC(=O)Nc1ccccc1)NO [Vorinostat] (partner 1 µM)
# Summary of the method: as §1
Cell Line,relative viability (Zebularine + Lapatinib; first compound 1 µM),relative viability (Zebularine + Lapatinib; first compound 3.162 µM),relative viability (Zebularine + Lapatinib; first compound 10 µM),relative viability (Zebularine + Lapatinib; first compound 31.62 µM),relative viability (Zebularine + Lapatinib; first compound 100 µM),relative viability (BI-D1870 + Phenformin; first compound 0.04 µM),relative viability (BI-D1870 + Phenformin; first compound 0.1265 µM),relative viability (BI-D1870 + Phenformin; first compound 0.4 µM),relative viability (BI-D1870 + Phenformin; first compound 1.265 µM),relative viability (BI-D1870 + Phenformin; first compound 4 µM),relative viability (BI-D1870 + Vorinostat; first compound 0.04 µM),relative viability (BI-D1870 + Vorinostat; first compound 0.1265 µM),relative viability (BI-D1870 + Vorinostat; first compound 0.4 µM),relative viability (BI-D1870 + Vorinostat; first compound 1.265 µM),relative viability (BI-D1870 + Vorinostat; first compound 4 µM),relative viability (Zebularine + Vorinostat; first compound 1 µM),relative viability (Zebularine + Vorinostat; first compound 3.162 µM),relative viability (Zebularine + Vorinostat; first compound 10 µM),relative viability (Zebularine + Vorinostat; first compound 31.62 µM),relative viability (Zebularine + Vorinostat; first compound 100 µM)
SK-LU-1,0.896,0.9,0.545,0.676,0.448,0.505,0.525,0.514,0.63,0.358,0.823,0.615,0.71,0.625,0.35,0.891,0.725,0.557,0.555,0.487
NCI-H1650,0.878,0.618,,1.08,0.86,0.368,0.362,0.358,0.414,0.304,0.613,0.425,0.646,0.595,0.577,0.645,0.57,0.506,0.748,0.373
NCI-H2009,0.941,0.755,0.753,0.757,0.359,0.546,0.457,0.456,0.329,0.222,0.776,0.629,0.76,0.599,0.461,0.728,0.679,0.625,0.63,0.241
LOU-NH91,0.715,0.731,0.712,0.705,0.606,0.744,0.63,0.703,0.817,0.558,0.991,0.859,0.876,0.858,0.655,0.981,0.899,0.81,0.9,0.557
NCI-H2405,1.06,0.946,0.906,0.963,0.76,0.436,0.415,0.386,0.438,0.398,1.04,1.03,1,0.974,0.9,1.2,0.981,0.894,1,0.826
LCLC-97TM1,0.784,0.665,0.451,0.376,0.139,0.458,0.472,0.396,0.417,0.453,1,0.684,0.722,0.868,0.472,0.529,0.253,0.33,0.157,0.152
NCI-H596,1.19,1.11,0.759,1.18,1,0.809,0.683,0.695,0.74,0.855,0.666,0.591,0.65,0.59,0.511,0.628,0.598,0.358,0.577,0.612
NCI-H727,0.724,0.797,0.65,0.948,0.772,0.53,0.614,0.587,0.712,0.462,1.32,1.22,0.986,1.19,1.08,1.18,1.14,0.971,1.26,1.08
H3255,0.249,0.239,0.221,0.235,0.228,0.408,0.323,0.334,0.356,0.367,0.88,0.816,0.761,0.889,0.802,0.793,0.864,,0.795,0.75
SK-MES-1,0.484,0.435,0.397,0.427,0.269,0.732,0.593,0.613,0.648,0.363,1.16,0.905,0.933,0.949,0.691,1.28,1.18,0.914,1.09,0.351
NCI-H1437,0.925,0.934,,0.787,0.333,0.279,0.255,0.309,0.332,0.27,0.809,0.747,0.749,0.76,0.492,1.02,0.899,0.727,0.911,0.55
LU99A,1.14,0.838,0.615,0.421,0.176,1.05,0.804,0.799,0.634,0.72,0.584,0.422,0.412,0.428,0.345,0.536,0.513,0.414,0.379,0.174
HCC-827,0.209,0.175,0.192,0.188,0.191,0.436,0.38,0.375,0.436,0.366,0.771,0.846,0.818,0.988,0.765,1.04,0.811,0.77,0.478,0.361
LK-2,0.947,1.04,0.584,0.539,0.283,0.631,0.437,0.451,0.545,0.217,0.351,0.391,0.468,0.277,0.279,0.277,0.315,0.209,0.177,0.28
HCC-366,1.22,0.984,0.329,0.749,0.0986,0.705,0.587,0.608,0.608,0.573,0.502,0.331,0.294,0.316,0.1,0.488,0.372,0.26,0.343,0.184
BEN,0.661,0.491,0.347,0.311,0.22,0.272,0.29,0.273,0.314,0.243,0.538,0.504,0.595,0.628,0.534,0.701,0.603,0.486,0.411,0.373
NCI-H23,1.15,1.12,,1.21,0.756,0.827,0.758,0.768,0.759,0.736,0.555,0.619,0.489,0.448,0.202,0.661,0.587,,0.542,0.509
NCI-H1395,1.27,1.04,0.799,0.702,0.507,0.451,0.418,0.464,0.456,0.427,0.774,0.641,0.801,0.705,0.597,0.7,0.753,0.661,0.655,0.515
201T,1.05,1.09,0.902,1.06,1.11,0.457,0.47,0.421,0.487,0.428,1.01,0.91,0.922,0.914,0.932,0.944,0.921,0.955,1.05,1.02
NCI-H2170,0.302,0.263,0.251,0.26,0.266,0.439,0.414,0.415,0.423,0.441,1.01,0.786,0.786,0.783,0.675,0.886,0.842,0.533,0.868,0.581
NCI-H460,1.05,0.897,0.255,0.294,0.0468,0.541,0.48,0.503,0.447,0.0984,0.922,0.643,0.672,0.37,0.0691,0.652,0.702,0.297,0.298,0.166
NCI-H661,0.443,0.463,0.461,0.436,0.583,0.27,0.28,0.281,0.289,0.269,0.815,0.806,0.764,0.691,0.451,0.9,0.829,0.673,0.936,0.824
HCC-15,0.941,0.822,0.74,0.825,0.401,0.56,0.468,0.417,0.426,0.394,0.81,0.782,0.786,0.987,0.678,0.986,0.9,0.665,0.759,0.436
ABC-1,1.05,1.08,0.655,0.642,0.605,0.215,0.211,0.264,0.218,0.212,1.2,1.01,1.07,1.2,0.535,1.15,1.02,0.701,0.835,0.575
EPLC-272H,0.935,,,0.992,0.598,0.36,0.262,0.289,0.28,0.2,0.523,0.663,0.484,0.297,0.148,0.419,0.32,,0.42,0.178
